From PubChem BioAssay (NCI)
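1) Cells in 96-well plates. 2) Compound, 48 h, 5 concentrations. 3) Linear interpolation between surrounding doses. 4) Unreached endpoint = highest concentration. GI50 marks 50% less growth. At the TGI there is no net growth.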

Columns and labels:
Assay in all cases: inhibition of tumour cell growth, NCI panel, 48 h
U251 CNS = system: U251 CNS
SF-295 CNS = system: SF-295 CNS
RXF 393 renal = system: RXF 393 renal
K-562 leukemia = system: K-562 leukemia
HCT-116 colon = system: HCT-116 colon
CAKI-1 renal = system: CAKI-1 renal
MDA-MB-231 breast = system: MDA-MB-231 breast
COLO 205 colon = system: COLO 205 colon
MDA-MB-435 = system: MDA-MB-435
EKVX NSCLC = system: EKVX NSCLC
PC-3 prostate = system: PC-3 prostate
UACC-257 melanoma = system: UACC-257 melanoma
MOLT-4 leukemia = system: MOLT-4 leukemia
DU-145 prostate = system: DU-145 prostate
SR leukemia = system: SR leukemia
786-0 renal = system: 786-0 renal
SNB-19 CNS = system: SNB-19 CNS
A549 NSCLC = system: A549 NSCLC
SNB-75 CNS = system: SNB-75 CNS
A498 renal = system: A498 renal
OVCAR-8 ovarian = system: OVCAR-8 ovarian
SK-OV-3 ovarian = system: SK-OV-3 ovarian
SK-MEL-5 melanoma = system: SK-MEL-5 melanoma
CCRF-CEM leukemia = system: CCRF-CEM leukemia
MALME-3M melanoma = system: MALME-3M melanoma
OVCAR-5 ovarian = system: OVCAR-5 ovarian
HOP-62 NSCLC = system: HOP-62 NSCLC
SK-MEL-2 melanoma = system: SK-MEL-2 melanoma
OVCAR-3 ovarian = system: OVCAR-3 ovarian
SF-268 CNS = system: SF-268 CNS
UO-31 renal = system: UO-31 renal
LOX IMVI melanoma = system: LOX IMVI melanoma
HCT-15 colon = system: HCT-15 colon
KM12 colon = system: KM12 colon
SK-MEL-28 melanoma = system: SK-MEL-28 melanoma
RPMI-8226 leukemia = system: RPMI-8226 leukemia
NCI-H460 lung = system: NCI-H460 lung
NCI-H23 lung = system: NCI-H23 lung
T-47D breast = system: T-47D breast
NCI/ADR-RES ovarian = system: NCI/ADR-RES ovarian
ACHN renal = system: ACHN renal
SN12C renal = system: SN12C renal
MDA-N = system: MDA-N
UACC-62 melanoma = system: UACC-62 melanoma
NCI-H226 lung = system: NCI-H226 lung
SW-620 colon = system: SW-620 colon
HOP-92 NSCLC = system: HOP-92 NSCLC
OVCAR-4 ovarian = system: OVCAR-4 ovarian
HCC-2998 colon = system: HCC-2998 colon
MCF7 breast = system: MCF7 breast
M14 melanoma = system: M14 melanoma
NCI-H522 lung = system: NCI-H522 lung
HS 578T breast = system: HS 578T breast
IGROV1 ovarian = system: IGROV1 ovarian
SF-539 CNS = system: SF-539 CNS
BT-549 breast = system: BT-549 breast
HL-60(TB) leukemia = system: HL-60(TB) leukemia
HT29 colon = system: HT29 colon
TK-10 renal = system: TK-10 renal

COC(=O)/C=C(\C)C(=O)N(C)c1ccccc1I
TGI (U251 CNS): > 100 µM | TGI (SF-295 CNS): > 100 µM | TGI (RXF 393 renal): > 100 µM | TGI (K-562 leukemia): > 100 µM | TGI (HCT-116 colon): > 100 µM | TGI (CAKI-1 renal): > 100 µM | TGI (MDA-MB-231 breast): > 100 µM | TGI (COLO 205 colon): > 100 µM | TGI (MDA-MB-435): > 100 µM | TGI (EKVX NSCLC): > 100 µM | TGI (PC-3 prostate): > 100 µM | TGI (UACC-257 melanoma): > 100 µM | TGI (MOLT-4 leukemia): > 100 µM | TGI (DU-145 prostate): > 100 µM | TGI (SR leukemia): > 100 µM | TGI (786-0 renal): > 100 µM | TGI (SNB-19 CNS): > 100 µM | TGI (A549 NSCLC): > 100 µM | TGI (SNB-75 CNS): > 100 µM | TGI (A498 renal): > 100 µM | TGI (OVCAR-8 ovarian): > 100 µM | TGI (SK-OV-3 ovarian): > 100 µM | TGI (SK-MEL-5 melanoma): > 100 µM | TGI (CCRF-CEM leukemia): > 100 µM | TGI (MALME-3M melanoma): > 100 µM | TGI (OVCAR-5 ovarian): > 100 µM | TGI (HOP-62 NSCLC): > 100 µM | TGI (SK-MEL-2 melanoma): > 100 µM | TGI (OVCAR-3 ovarian): > 100 µM | TGI (SF-268 CNS): > 100 µM | TGI (UO-31 renal): > 100 µM | TGI (LOX IMVI melanoma): > 100 µM | TGI (HCT-15 colon): > 100 µM | TGI (KM12 colon): > 100 µM | TGI (SK-MEL-28 melanoma): > 100 µM | TGI (RPMI-8226 leukemia): > 100 µM | TGI (NCI-H460 lung): > 100 µM | TGI (NCI-H23 lung): > 100 µM | TGI (T-47D breast): > 100 µM | TGI (NCI/ADR-RES ovarian): > 100 µM | TGI (ACHN renal): > 100 µM | TGI (SN12C renal): > 100 µM | TGI (MDA-N): > 100 µM | TGI (UACC-62 melanoma): > 100 µM | TGI (NCI-H226 lung): > 100 µM | TGI (SW-620 colon): > 100 µM | TGI (HOP-92 NSCLC): > 100 µM | TGI (OVCAR-4 ovarian): > 100 µM | TGI (HCC-2998 colon): > 100 µM | TGI (MCF7 breast): > 100 µM | TGI (M14 melanoma): > 100 µM

COCCOC(=O)NC(=O)Nc1ccc(/C(=N/O)c2ccc(Cl)cc2)cc1
GI50 (U251 CNS): 0.12 µM | TGI (U251 CNS): 33 µM | GI50 (SF-295 CNS): 0.123 µM | TGI (SF-295 CNS): 0.559 µM | GI50 (NCI-H522 lung): 0.123 µM | TGI (NCI-H522 lung): 5.58 µM | GI50 (HS 578T breast): 0.157 µM | TGI (HS 578T breast): 34.3 µM | GI50 (RXF 393 renal): 0.0866 µM | TGI (RXF 393 renal): 3.2 µM | GI50 (K-562 leukemia): 0.0633 µM | TGI (K-562 leukemia): 31.9 µM | GI50 (HCT-116 colon): 0.112 µM | TGI (HCT-116 colon): 23.6 µM | TGI (CAKI-1 renal): > 100 µM | GI50 (IGROV1 ovarian): 0.269 µM | TGI (IGROV1 ovarian): > 69 µM | GI50 (MDA-MB-231 breast): 0.166 µM | TGI (MDA-MB-231 breast): 11 µM | GI50 (SF-539 CNS): 0.121 µM | TGI (SF-539 CNS): 0.341 µM | GI50 (BT-549 breast): 0.58 µM | TGI (BT-549 breast): 39.6 µM | GI50 (COLO 205 colon): 0.14 µM | TGI (COLO 205 colon): 2.28 µM | GI50 (MDA-MB-435): 0.092 µM | TGI (MDA-MB-435): 0.374 µM | GI50 (EKVX NSCLC): 0.161 µM | TGI (EKVX NSCLC): > 89.8 µM | GI50 (PC-3 prostate): 0.141 µM | TGI (PC-3 prostate): 64.2 µM | GI50 (HL-60(TB) leukemia): 0.0783 µM | TGI (HL-60(TB) leukemia): 0.137 µM | GI50 (UACC-257 melanoma): 13 µM | TGI (UACC-257 melanoma): 48.9 µM | GI50 (MOLT-4 leukemia): 0.109 µM | TGI (MOLT-4 leukemia): 7.76 µM | GI50 (DU-145 prostate): 0.121 µM | TGI (DU-145 prostate): 20.4 µM | GI50 (SR leukemia): 0.0546 µM | TGI (SR leukemia): 10.8 µM | GI50 (786-0 renal): 0.249 µM | TGI (786-0 renal): 25.7 µM | GI50 (SNB-19 CNS): 0.535 µM | TGI (SNB-19 CNS): > 100 µM | GI50 (A549 NSCLC): 0.284 µM | TGI (A549 NSCLC): > 85.3 µM | GI50 (SNB-75 CNS): 0.129 µM | TGI (SNB-75 CNS): 7.94 µM | GI50 (A498 renal): 0.179 µM | TGI (A498 renal): 3.46 µM | GI50 (OVCAR-8 ovarian): 0.188 µM | TGI (OVCAR-8 ovarian): 34.7 µM | GI50 (SK-OV-3 ovarian): 0.118 µM | TGI (SK-OV-3 ovarian): 25.1 µM | GI50 (SK-MEL-5 melanoma): 0.0817 µM | TGI (SK-MEL-5 melanoma): 2.85 µM | GI50 (CCRF-CEM leukemia): 0.0989 µM | TGI (CCRF-CEM leukemia): 28.1 µM | GI50 (MALME-3M melanoma): 11.9 µM | TGI (MALME-3M melanoma): 33.1 µM | GI50 (OVCAR-5 ovarian): 0.308 µM | TGI (OVCAR-5 ovarian): 52.8 µM | GI50 (HOP-62 NSCLC): 0.127 µM | TGI (HOP-62 NSCLC): 41.2 µM | TGI (SK-MEL-2 melanoma): 29 µM | GI50 (OVCAR-3 ovarian): 0.0991 µM | TGI (OVCAR-3 ovarian): 4.4 µM | GI50 (SF-268 CNS): 0.209 µM | TGI (SF-268 CNS): > 100 µM | GI50 (UO-31 renal): 0.284 µM | TGI (UO-31 renal): 26.5 µM | GI50 (HT29 colon): 0.108 µM | TGI (HT29 colon): 15.3 µM | GI50 (LOX IMVI melanoma): 0.144 µM | TGI (LOX IMVI melanoma): 23.7 µM | GI50 (HCT-15 colon): 0.0842 µM | TGI (HCT-15 colon): 19.8 µM | GI50 (TK-10 renal): 16.5 µM | TGI (TK-10 renal): > 82.6 µM | GI50 (KM12 colon): 0.0996 µM | TGI (KM12 colon): 29.1 µM | GI50 (SK-MEL-28 melanoma): 11.5 µM | TGI (SK-MEL-28 melanoma): 48 µM | GI50 (RPMI-8226 leukemia): 0.129 µM | TGI (RPMI-8226 leukemia): 19 µM | GI50 (NCI-H460 lung): 0.129 µM | TGI (NCI-H460 lung): 13.7 µM | GI50 (NCI-H23 lung): 0.221 µM | TGI (NCI-H23 lung): 51.4 µM | GI50 (T-47D breast): 8.82 µM | TGI (T-47D breast): 50.5 µM | TGI (NCI/ADR-RES ovarian): 7.31 µM | GI50 (ACHN renal): 0.186 µM | TGI (ACHN renal): 48.8 µM | GI50 (SN12C renal): 0.157 µM | TGI (SN12C renal): 59.3 µM | GI50 (UACC-62 melanoma): 0.109 µM | TGI (UACC-62 melanoma): 15.8 µM | GI50 (NCI-H226 lung): 1.14 µM | TGI (NCI-H226 lung): 39.4 µM | GI50 (SW-620 colon): 0.109 µM | TGI (SW-620 colon): > 100 µM | GI50 (HOP-92 NSCLC): 1.4 µM | TGI (HOP-92 NSCLC): 44.1 µM | GI50 (OVCAR-4 ovarian): 0.385 µM | TGI (OVCAR-4 ovarian): 54.2 µM | GI50 (HCC-2998 colon): 0.2 µM | TGI (HCC-2998 colon): 7.04 µM | GI50 (MCF7 breast): 0.0989 µM | TGI (MCF7 breast): 37.9 µM | GI50 (M14 melanoma): 0.0843 µM | TGI (M14 melanoma): 18.4 µM

COc1cc2cc(C(=O)N3C[C@@H](CCl)c4c3cc(N)c3ccccc43)[nH]c2c(OC)c1OC
TGI (U251 CNS): > 100 µM | TGI (SF-295 CNS): > 100 µM | TGI (HS 578T breast): > 100 µM | TGI (K-562 leukemia): > 100 µM | TGI (HCT-116 colon): 0.136 µM | TGI (CAKI-1 renal): 0.0364 µM | TGI (IGROV1 ovarian): 0.467 µM | TGI (PC-3 prostate): 0.108 µM | TGI (HL-60(TB) leukemia): > 100 µM | TGI (MOLT-4 leukemia): 1.64 µM | TGI (SR leukemia): > 100 µM | TGI (A549 NSCLC): > 100 µM | TGI (SK-OV-3 ovarian): 1.45 µM | TGI (CCRF-CEM leukemia): > 100 µM | TGI (SF-268 CNS): > 100 µM | TGI (HT29 colon): 1.1 µM | TGI (HCT-15 colon): 1.11 µM | TGI (KM12 colon): 0.0257 µM | TGI (SK-MEL-28 melanoma): > 100 µM | TGI (RPMI-8226 leukemia): > 100 µM | TGI (MDA-N): 0.00153 µM | TGI (SW-620 colon): > 100 µM | TGI (HOP-92 NSCLC): > 100 µM | TGI (MCF7 breast): 22 µM
